{
  "source": "patent US8247552B2",
  "about": "“Analogs of dehydrophenylahistins and their therapeutic use” (Nereus Pharmaceuticals, Inc., priority 2002, dated 2012)",
  "key": {"[1]": {"system": "poly(ADP-ribose) polymerase (PARP) in Jurkat cells", "experiment": "Cleavage of poly(ADP-ribose) polymerase by western blotting", "format": "cell-based, human", "conditions": "100 nM, 10 hours after exposure"}, "HT-29 human colon cells": {"system": "HT-29 human colon cells", "experiment": "Tumor cytotoxicity / cell growth inhibition assay, resazurin fluorescence, 48 h", "format": "cell-based"}, "Cytotoxicity, resazurin": {"experiment": "Cytotoxicity, resazurin", "format": "cell-based", "conditions": "human, CCD-27sk normal fibroblasts; Table 12; CCD-27sk Fibroblast", "description": "(§1) Cells were maintained at subconfluent densities in their respective culture media."}, "[2]": {"system": "OVCAR-3 (human ovarian tumor)", "experiment": "Cytotoxicity, resazurin", "format": "cell-based", "conditions": "Table 12, OVCAR-3 Ovary", "description": "as §1"}, "[3]": {"system": "panel of 60 different kinases", "conditions": "ATP 10 μM; four kinases"}, "[4]": {"system": "DU-145 human prostate tumor", "experiment": "DU-145 Human Prostate Tumor Xenograft Model", "format": "in vivo, mice", "conditions": "KPU-2 plus taxotere, treatment Days 20-27", "procedure": "Selected novel compounds were administered as monotherapy via the intraperitoneal (i.p.) route at the doses indicated for the individual study; for the combination studies the selected reference chemotherapy agents were injected 15-30 min prior to the compound.\nWhen the tumors reached ˜5 mm×5 mm (at about 13-17 days) the animals were matched into treatment and control groups. The remainder of the study proceeded as for the HT-29 model, using taxotere as the standard chemotherapy agent.\nIn this model unless otherwise noted for the individual study, test compounds were administered via the intraperitoneal route on Days 1, 3, 5, 8 and 11 (q3dx5); taxotere was administered intravenously on Days 1, 3 and 5 (q2dx3)."}, "[5]": {"system": "MDA-231 human breast tumor", "experiment": "MDA-231 Human Breast Tumor Orthotopic (mammary fat pad) Xenograft Model", "format": "in vivo, mice", "conditions": "KPU-2 7.5 mg/kg ip q3dx5 with paclitaxel 16 mg/kg ip qdx5; three weeks", "method": "The animals used were: female nude mice (nu/nu) (MDA-231 study) or B6D2F1 (B16-F10 studies) mice between 5 and 6 weeks of age (˜20 g, Harlan); group size was 10 mice per group unless otherwise indicated.\nNPI compounds were administered as monotherapy via the intraperitoneal route at the doses indicated for the individual study; for the combination studies the selected reference chemotherapy agents were injected 15-30 min prior to the NPI compound.\nFemale nude mice were injected in the mammary fat pad with 2×10^6 MDA-231 cells harvested from in vitro cell culture. When the tumor size reached 5 mm×5 mm (about 14-28 days) the animals were matched into treatment and control groups. The study then proceeded as described for the HT-29 model, using paclitaxel as the standard chemotherapy agent.\nIn this model unless otherwise noted for the individual study, the test compounds were administered via the intraperitoneal route on Days 1, 4, 8, 11 and 15 (q3dx5); paclitaxel was administered via the intraperitoneal route on Days 1-5 (qdx5).\nThis model involves the placement of the human tumor tissue into the mouse mammary fat pad, a surrogate of the natural environment. In this manner the possibility of a positive effect due to a specific action on the subcutaneous vascular bed is avoided."}, "[6]": {"system": "human prostate tumor cells", "experiment": "Induction of apoptosis, morphological changes", "format": "cell-based", "description": "The characteristic signs of apoptotic cell death include cell membrane blebbing, disruption of nuclei, cell shrinkage and condensation and finally cell death, very distinctive from necrotic cell death. […] A similar finding was also clear in the treatment of HuVEC cells with KPU-2."}, "Trichophyton rubrum": {"system": "Trichophyton rubrum", "experiment": "Antifungal susceptibility testing (NCCLS M38-A), MIC/MFC", "format": "cell-based", "conditions": "dermatophyte isolates", "method": "Specifically, disclosed compounds were evaluated alongside commercially available microtubulin inhibitors as well as recognized antifungal agents.\n(§2) Microorganisms against which these compounds were tested included: Candida albicans, Candida glabrata, Aspergillus fumigatus, Trichophyton rubrum, Trichophyton mentagrophytes, Epidermophyton floccosum. With the exception of Candida glabrata (one isolate), two isolates of each species were tested.\n(§3) The minimum lethal concentration (MLC) was determined by plating […] from the MIC concentration and each concentration above the MIC. […] When a MIC was obtained, a minimum fungicidal concentration (MFC) was determined to assess the fungistatic/fungicidal nature of the compound."}, "MCF-7 human breast tumor": {"system": "MCF-7 human breast tumor", "experiment": "MCF-7 Human Breast Tumor Xenograft Model", "format": "in vivo, mice", "conditions": "combination with taxotere", "method": "Animals used were (exceptions are indicated for individual studies): female nude mice (nu/nu) between 5 and 6 weeks of age (˜20 g, Harlan); group size was 9-10 mice per group unless otherwise indicated.\nFemale nude mice (˜20 g) were implanted s.c. with 21-day release estrogen (0.25 mg) pellets 24 hours prior to the s.c. implantation with MCF-7 tumor fragments (harvested from s.c. tumors in nude mice hosts). The study then proceeded as described for the HT-29 model, using taxotere as the standard chemotherapy agent.\nIn this model unless otherwise noted for the individual study, the novel compounds were injected via the intraperitoneal route daily on Days 1-5, inclusive (qdx5); taxotere was administered intravenously on Days 1, 3 and 5 (qodx3).\nThe doses of the compounds were administered on Days 1, 2, 3, 4, and 7; Taxotere was administered on Days 1, 3 and 7."}, "HuVEC cells": {"system": "HuVEC cells", "experiment": "Microtubule (tubulin) depolymerization, α-tubulin staining", "conditions": "2 μM, thirty minutes exposure", "procedure": "The plates were returned to the incubator for 2 days.\n20 mM stock solutions of compounds were prepared in 100% DMSO and stored at −80° C. 400× concentrated dilutions of the compounds were prepared in 100% DMSO. 5 μl volumes of the dilutions were added to individual wells resulting in a final concentration of 20 nM. […] The plates were returned to the incubator for 30 minutes.\nThe cells were rinsed in dPBS before fixation in 10% (v/v) neutral buffered formalin for 10 minutes at room temperature. Following fixation, α-tubulin was visualized by indirect immunofluorescence. Specifically, the cells were permeabilized in 0.2% (v/v) triton X-100/dPBS for 10 minutes. The cells were washed prior to transferring the coverslips to a humidified chamber, the coverslips were blocked for two hours in antibody buffer [2% (w/v) BSA/0.1% (v/v) Tween 20/dPBS]. The coverslips were incubated with 50 μl of 0.1 μg/ml mouse α-tubulin (Molecular Probes) in antibody buffer for 1 hour before washing and incubation with 50 μl of 1 μg/ml goat anti-mouse FITC (Jackson ImmunoResearch Laboratories) for one hour in the dark. Finally, the cells were washed and treated with 2 μg/ml DAPI (Molecular Probes) for 10 minutes before rinsing in H2O and mounting with Vectashield (Vector Labs) mounting media. The cells were imaged using a 60× oil immersion objective on an upright microscope (Olympus BX51). The images were digitally captured using a CCD camera and Magnafire 2.0 software (Olympus). Post image processing was performed in Photoshop Elements 2.0 (Adobe) and in Microsoft Powerpoint.\nHuman umbilical vein endothelial cells (HuVECs; Cambrex CC2519A) were maintained at subconfluent densities in EGM-2 (Cambrex) media. […] The plates were returned to the incubator for 2 days.\nStock (20 mM) solutions of the test compounds were prepared in 100% DMSO. 400× concentrated dilutions of the compounds were prepared in 100% DMSO. 5 μl volumes of the dilutions were added to individual wells resulting in a final concentration of 200 nM. […] The plates were returned to the incubator for 30 minutes.\nThe cells were rinsed in dPBS before fixation in 10% (v/v) neutral buffered formalin for 10 minutes at room temperature. Following fixation, α-tubulin was visualized by indirect immunofluorescence. Specifically, the cells were permeabilized in 0.2% (v/v) triton X-100/dPBS for 10 minutes. The cells were washed prior to transferring the coverslips to a humidified chamber, the coverslips were blocked for two hours in antibody buffer (2% (w/v) BSA/0.1% (v/v) Tween 20/dPBS). The coverslips were incubated with 50 μl of 0.1 μg/ml mouse α-tubulin (Molecular Probes) in antibody buffer for 1 hour before washing and incubation with 50 μl of 1 μg/ml goat anti-mouse FITC (Jackson ImmunoResearch Laboratories) for one hour in the dark. Finally, the cells were washed and treated with 2 μg/ml DAPI (Molecular Probes) for 10 minutes before rinsing in H2O and mounting with Vectashield (Vector Labs) mounting media. The cells were imaged using a 60× oil immersion objective on an upright microscope (Olympus BX51). The images were digitally captured using a CCD camera and Magnafire 2.0 software (Olympus). Post image processing was performed in Photoshop Elements 2.0 (Adobe) and in Microsoft Powerpoint."}, "Epidermophyton floccosum": {"system": "Epidermophyton floccosum", "experiment": "Antifungal susceptibility testing (NCCLS M38-A), MIC/MFC", "format": "cell-based", "conditions": "Table 24, read-out: E. floccosum isolate #2 (column head empty, before MFC)", "method": "Specifically, disclosed compounds were evaluated alongside commercially available microtubulin inhibitors as well as recognized antifungal agents. […].\nas §2\nDrug concentrations were 0.03-16 μg/ml for the investigational compounds, 0.015-8 μg/ml for itraconazole and griseofulvin.\nas §3, with “compound. […] The compound is scored as fungistatic if the cells are able to resume growth and fungicidal if no regrowth is possible because the compound had killed the organisms.” for “compound.”"}, "[7]": {"system": "HL-60 human acute promyelocytic leukemia (Mitoxantrone-sensitive)", "experiment": "Cytotoxicity / growth inhibition in sensitive leukemia cells", "format": "cell-based", "conditions": "Table 20, mean of two independent experiments, 48 hours", "procedure": "(§4) HL-60 and HL-60/MX2 cells were both seeded at 5×10^4 cells/well in 90 μl complete media into 96 well plates on the day of compound addition. 20 mM stock solutions of the compounds were prepared in 100% DMSO and stored at −80° C. […] Ten μl volumes of the 10× serial dilutions were added to the test wells in triplicate and the plates returned to the incubator for 48 hours."}, "[8]": {"system": "MES-SA/Dx5 (Taxol resistant) human uterine sarcoma", "experiment": "Cytotoxicity / growth inhibition in multidrug resistant uterine sarcoma cells", "format": "cell-based", "conditions": "versus MES-SA", "method": "1) Human Uterine Sarcoma Tumor Cell Line Pair: MES-SA (Taxol Sensitive) and MES-SA/Dx5 (Taxol Resistant).\nHL-60 and HL-60/MX2 cells were both seeded at 5×10^4 cells/well in 90 μl complete media into 96 well plates on the day of compound addition. […] Ten μl volumes of the 10× serial dilutions were added to the test wells in triplicate and the plates returned to the incubator for 48 hours.\nResazurin dye in medium without cells was used to determine the background, which was subtracted from the data for all experimental wells.\nThe multidrug resistant MES-SA/Dx5 tumor cell line was derived from the human uterine sarcoma MES-SA tumor cell line and expresses elevated P-Glycoprotein (P-gp), an ATP dependent efflux pump. […] Paclitaxel, a known substrate of the P-gp pump was included as a control."}, "[9]": {"system": "HL-60/MX-2 (Mitoxantrone-resistant)", "experiment": "Cytotoxicity / growth inhibition in resistant leukemia cells", "format": "cell-based, human", "procedure": "as §4"}},
  "data": [
    {"compound": "CC(C)(C)c1[nH]cnc1/C=c1\\[nH]c(=O)/c(=C/c2ccccc2)[nH]c1=O", "note": "[KPU-2, tBu-dehydrophenylahistin]", "values": [
      {"measurement": "cleavage of PARP", "setting": "[1]", "result": "induced cleavage of PARP"},
      {"measurement": "cytotoxic activity against HT-29 cells", "setting": "HT-29 human colon cells", "result": "active in the low nanomolar range"},
      {"measurement": "cytotoxicity at 48 h", "setting": "Cytotoxicity, resazurin", "result": 64.3, "unit": "%"},
      {"measurement": "IC50", "setting": "[2]", "result": "> 20", "unit": "nM"},
      {"measurement": "IC50 against kinases inhibited >50% in primary screen", "setting": "[3]", "result": "low micromolar range"},
      {"measurement": "apparent TGI of combination therapy", "setting": "[4]", "result": "> 58", "unit": "%"},
      {"measurement": "inhibition of tumor growth", "setting": "[5]", "result": "significant inhibition of tumor growth in the combination therapy group"},
      {"measurement": "morphological changes of apoptosis", "setting": "[6]", "result": "induced the typical morphological changes associated with early stages of apoptosis"},
      {"measurement": "antifungal potency compared with griseofulvin", "setting": "Trichophyton rubrum", "result": "equivalent in potency or in some cases more potent than griseofulvin"},
      {"measurement": "effect on estimated tumor growth with taxotere", "setting": "MCF-7 human breast tumor", "result": "appeared to be the most effective"},
      {"measurement": "microtubule depolymerization in HuVEC cells", "setting": "HuVEC cells", "result": "induced microtubule depolymerization"}
    ]},
    {"compound": "COC1=CC(=O)C[C@@H](C)[C@]12Oc1c(Cl)c(OC)cc(OC)c1C2=O", "note": "[griseofulvin, Griseofulvin]", "values": [
      {"measurement": "MFC", "setting": "Epidermophyton floccosum", "result": 4, "unit": "µg/mL"}
    ]},
    {"compound": "O=C1c2c(O)ccc(O)c2C(=O)c2c(NCCNCCO)ccc(NCCNCCO)c21", "note": "[mitoxantrone, Mitoxantrone]", "values": [
      {"measurement": "EC50", "setting": "[7]", "result": 42, "unit": "nM"},
      {"measurement": "reduced susceptibility of MES-SA/DX5 cell line", "setting": "[8]", "result": 20, "unit": "fold"},
      {"measurement": "EC50", "setting": "[9]; Homo sapiens, HL60/MX2, Table 20, mean of two independent experiments, 48 hours", "result": 1100, "unit": "nM"},
      {"measurement": "loss of efficacy in the resistant HL-60/MX-2 cell line", "setting": "[9]; versus HL-60, Example 10", "result": 24, "unit": "fold"},
      {"measurement": "times less active against resistant HL-60/MX2 cells", "setting": "[9]; versus HL-60, Example 11", "result": "~26", "unit": "times"}
    ]}
  ]
}
